Laboratory results: PMC12040169 (PLOS Biology, 2025)

Test: in vitro
Conditions: human, hela cells, % viability

Going from `Cc1nn(C)c(C)c1CCC(=O)NCC1CN(c2ccccc2)CCO1` (stereo not shown) [CBK307199] to `Cc1cc(OCc2nnc(SCC(=O)N3CCN(c4ccccc4)CC3)n2C)ccc1Cl` [CBK268611], the viability at 28.5 h, 10 µM rises from 103% to 104%.

First: CCCN1CCN(C(=O)c2ccc(=O)n(C)c2)C(Cc2ccccc2-c2ccccc2)C1=O (stereo not shown) [CBK285836]
Second: O=C(N[C@H]1CCN2C(=O)c3cc(-c4ccccc4)ccc3NC(=O)[C@H]12)c1cccs1 [CBK289350]
The viability at 28.5 h, 10 µM of the first is higher: 108% for the first, 85.9% for the second.

Compared with `CN1CCC(COC(=O)Nc2cccnc2)CC1` [CBK138232], `CC(=O)Nc1cccc(C(=O)OCC(=O)N2CCC(C)CC2)c1` [CBK305905] is lower in viability at 28.5 h, 10 µM: 108% for the first, 98.3% for the second.

Going from `O=C(c1ccccn1)N1CCCC(n2cnc3cc(F)ccc32)C1` (stereo not shown) [CBK284476] to `CCC(C(=O)NCC1CCCN(C(C)C)C1)n1cnc2ccccc21` (stereo not shown) [CBK282706], the viability at 28.5 h, 10 µM falls from 92.7% to 88.6%.

Going from `O=C1CSC(c2cccnc2)N1CCc1ccccn1` (stereo not shown) [CBK017292] to `O=C1CC(C(=O)Nc2ccccn2)c2ccccc2N1` (stereo not shown) [CBK297771], the viability at 28.5 h, 10 µM rises from 96.7% to 101%.

Going from `Fc1ccc(C2C=C(c3ccc(F)cc3F)Nc3ncnn32)cc1` (stereo not shown) [CBK288095] to `O=C(O)c1ccc(-n2ncc3ccccc3c2=O)cc1` [CBK288229], the viability at 28.5 h, 10 µM rises from 99.7% to 111%.

Compared with `Cc1ccc(N(CC(=O)O)S(C)(=O)=O)cc1C` [CBK286978], `Cc1nc(NS(=O)(=O)c2ccc3ccccc3c2)sc1C(=O)O` [CBK045548] is higher in viability at 28.5 h, 10 µM: 87.1% for the first, 105% for the second.

Going from `CCCn1nnc(NCc2ccc(Cl)cc2)n1` [CBK288089] to `CCCn1nnc(NC(=O)C(C)Oc2ccc(Cl)cc2Cl)n1` (stereo not shown) [CBK266772], the viability at 28.5 h, 10 µM rises from 97.2% to 98.6%.

First: O=C(c1ccccc1)c1cc(Cl)ccc1-n1ccnc1Br [CBK016011]
Second: COc1ccc(C(=O)OC(C)(C)C)c(-c2nccnc2N[C@@H](C)c2ccccc2)c1 [CBK036994]
The viability at 28.5 h, 10 µM of the first is lower: 90.4% for the first, 94.2% for the second.

Compared with `CCN(CC)C(=O)CN1CCC(c2ccccc2F)CC1` [CBK283549], `CCN(CC)C1CCN(C(=O)Nc2cc(NC(C)=O)ccc2F)C1` (stereo not shown) [CBK305207] is lower in viability at 28.5 h, 10 µM: 94% for the first, 88.7% for the second.

Going from `CN1CCC(N(C)C(=O)NCCCN2CCCC2=O)C1` (stereo not shown) [CBK156021] to `CCn1c(CC2CCN(C(=O)CCCn3cnnn3)CC2)nn(C)c1=O` [CBK306537], the viability at 28.5 h, 10 µM rises from 92.3% to 102%.

Compared with `COc1ccccc1OCc1ccccc1` [CBK002814], `COc1cc(NC(=O)C(c2ccccc2)c2ccccc2)c(C(=O)O)cc1OC` [CBK262001] is lower in viability at 28.5 h, 10 µM: 105% for the first, 90.1% for the second.

Compared with `CC(=O)N1CCN(C(=O)c2cnc(-c3ccc(Cl)cc3)c(-c3ccco3)c2)CC1` [CBK037518], `CC(=O)Nc1ccc(-c2cncc(N3CCN(C(=O)c4ccco4)CC3)n2)cc1` [CBK066065] is higher in viability at 28.5 h, 10 µM: 98.1% for the first, 99.3% for the second.

First: C(=N\c1ccc(Cc2ccc(/N=C/c3cccnc3)cc2)cc1)/c1cccnc1 [CBK260884]
Second: CCOc1ccc(C(=O)Nc2ccc(Cc3ccncc3)cc2)cc1[N+](=O)[O-] [CBK262867]
The viability at 28.5 h, 10 µM of the first is lower: 95% for the first, 114% for the second.

Compared with `CCCC(=O)c1ccc(S(=O)(=O)N2CCCN(Cc3cc(Br)cs3)CC2)cc1` [CBK062896], `COc1cc(CN2CCN(Cc3ccccc3)CC2)cc([N+](=O)[O-])c1O` [CBK261574] is higher in viability at 28.5 h, 10 µM: 91.2% for the first, 99% for the second.

Going from `O=C1NC2(CCCCCC2)C(=O)N1Cc1cnn(-c2ccccc2)n1` [CBK305571] to `CN1CCN(C2CC(=O)N(c3ccc(Oc4ccccc4)cc3)C2=O)CC1` (stereo not shown) [CBK265434], the viability at 28.5 h, 10 µM rises from 100% to 103%.

Going from `Cc1ccc(-c2ccnc3[nH]c(=O)[nH]c(=O)c23)cc1` [CBK287978] to `O=C(O)c1ccc(-c2n[nH]c(=O)c3c2CCCC3)cc1` [CBK287868], the viability at 28.5 h, 10 µM rises from 89.7% to 93.6%.

Going from `Cc1cc(I)ccc1NC(=O)CCN1C(=O)c2cccc([N+](=O)[O-])c2C1=O` [CBK263128] to `Cc1cc(Cl)ccc1NC(=O)CCC(=O)N/N=C/c1cccnc1` [CBK261945], the viability at 28.5 h, 10 µM rises from 88.3% to 100%.

First: CN(C(=O)Cn1cccn1)c1nc2c(s1)CC(c1ccccc1)CC2 (stereo not shown) [CBK305173]
Second: CN(Cc1cnn(C)c1)C(=O)c1cc(O)nc2ccccc12 [CBK251706]
The viability at 28.5 h, 10 µM of the first is lower: 102% for the first, 106% for the second.

Going from `COc1ccc([C@@]23CC[C@@H](NS(=O)(=O)Cc4ccccc4)C[C@@H]2N(C)CC3)cc1OC` [CBK056665T] to `COc1ccc(NS(=O)(=O)c2c(Cl)cccc2Cl)c(C(=O)NCc2ccccc2)c1` [CBK113952], the viability at 28.5 h, 10 µM falls from 91.4% to 79.8%.

First: Cc1ccc2oc(=O)cc(N/N=C(\Cl)C(N)=S)c2c1 [CBK022357]
Second: Cc1cc2cc(C(=O)NCCCN3Cc4ccccc4C3)ccc2o1 [CBK282624]
The viability at 28.5 h, 10 µM of the first is lower: 85.8% for the first, 97.4% for the second.

Compared with `CCOC(=O)c1ccc(C2=NCCC2)[nH]1` [CBK011191], `COCC(=O)N1CCc2nc(-c3ccc(F)cc3)sc2C1` [CBK281673] is higher in viability at 28.5 h, 10 µM: 95.1% for the first, 107% for the second.

`Cc1nc(SCC(=O)O)nc(O)c1CCC(C)C` [CBK269920] and `CC(C)NC(=O)CSc1nc2ccccc2[nH]1` [CBK072235] are the same in viability at 28.5 h, 10 µM: 92.9% for the first, 92.9% for the second.

Compared with `CC(Oc1cccc2cccnc12)C(=O)N/N=C/c1ccc(-c2ccc(Br)cc2)o1` (stereo not shown) [CBK262838], `COc1ccc(C(=O)C2=C(O)C(=O)N(CCCO)C2c2ccc(Br)cc2)cc1` (stereo not shown) [CBK263769] is higher in viability at 28.5 h, 10 µM: 93.4% for the first, 95.5% for the second.

First: O=S(=O)(NCCN1CCOCC1)c1ccc(Cl)c(Cl)c1Cl [CBK264973]
Second: CCOC(=O)CN1CCC(Oc2nccnc2OCc2ccc(Cl)c(Cl)c2)CC1 [CBK083113T]
The viability at 28.5 h, 10 µM of the first is higher: 109% for the first, 96.7% for the second.

First: CSc1nnc(SCC(=O)N2CCC(C(F)(F)F)CC2)s1 [CBK057829]
Second: O=C(C1CCCCC1)N1CCC(c2nnc3n2CCCCC3)CC1 [CBK284613]
The viability at 28.5 h, 10 µM of the first is higher: 111% for the first, 92.7% for the second.

Compared with `Nc1cccc(-c2nc(-c3cccs3)cnc2N)c1` [CBK063923], `Nc1ncc(-c2cncnc2)nc1-c1ccc(CCC(=O)O)cc1` [CBK064120] is higher in viability at 28.5 h, 10 µM: 94.5% for the first, 102% for the second.

Compared with `COC(=O)[C@@H](C)NC(=O)[C@@H]1CN(C(=O)c2cccc(F)c2)CCN1C(C)=O` [CBK289620], `CN(C)CCNC(=O)c1cccc(-c2cnc3[nH]c(=O)n(C4CCCCC4)c3n2)c1` [CBK064191] is higher in viability at 28.5 h, 10 µM: 91.3% for the first, 103% for the second.

Compared with `CC1CCCN(C(=O)CCc2nc3sc4c(c3c(=O)[nH]2)CCCC4)C1` (stereo not shown) [CBK306073], `COCCNC(=O)C1CCCN(c2nc3c(-c4ccccc4)csc3c(=O)[nH]2)C1` (stereo not shown) [CBK215497] is higher in viability at 28.5 h, 10 µM: 87.5% for the first, 114% for the second.

Going from `CCN(c1cc(N2CCCNCC2)ccc1NS(=O)(=O)c1cccc2cccnc12)S(C)(=O)=O` [CBK000014C] to `CCN(CC)C(=O)c1ccc(NS(=O)(=O)c2ccc(-c3ccccc3)cc2)cc1` [CBK034395], the viability at 28.5 h, 10 µM rises from 80.1% to 97.5%.

`c1ccc(-c2c(-c3ccccc3)n(Cc3ccco3)c3ncn4nc(-c5cccnc5)nc4c23)cc1` [CBK265374] and `COc1cc(Cn2c(-c3ccc(O)c(OC)c3)nc3ccccc32)ccc1O` [CBK291138] are the same in viability at 28.5 h, 10 µM: 100% for the first, 100% for the second.

Compared with `c1cnc(OC2CCN(Cc3ccc4c(c3)OCO4)CC2)c(OCCN2CCOCC2)n1` [CBK082925T], `c1csc(-c2nccnc2OCC2COc3ccccc3O2)c1` (stereo not shown) [CBK107063] is lower in viability at 28.5 h, 10 µM: 115% for the first, 101% for the second.

Compared with `COc1cc(-c2ccc(C(=O)N(C)CCN(C)C)c(N(C)C)n2)cc(OC)c1OC` [CBK106076], `CC(C)CN(Cc1ccc2c(c1)OCO2)C(=O)NCc1ccc2c(c1)OCO2` [CBK159071] is lower in viability at 28.5 h, 10 µM: 109% for the first, 96.4% for the second.

First: Cc1cc(O)n2nc(CC(=O)NCCCn3c(C)cccc3=O)nc2n1 [CBK306532]
Second: Cc1ccc(-c2noc([C@@H]3C[C@H](NC(=O)CCC(=O)O)CN3C)n2)cc1 [CBK288852]
The viability at 28.5 h, 10 µM of the first is higher: 97.1% for the first, 93.8% for the second.

First: O=[N+]([O-])c1cccc(S(=O)(=O)NCCCn2ccnc2)c1 [CBK266676]
Second: Cc1ccc(S(=O)(=O)NC(C)(C)CSc2nncn2N)cc1 [CBK266297]
The viability at 28.5 h, 10 µM of the first is lower: 91.1% for the first, 103% for the second.

Going from `COc1ccc(C(C)C)cc1-c1nccnc1N1CCCN(C)CC1` [CBK036677] to `CN1CCN(c2nc3c(c(=O)n(C)c(=O)n3C)n2CCSc2nc3ccccc3o2)CC1` [CBK269452], the viability at 28.5 h, 10 µM falls from 110% to 90%.

First: CCn1cc(-c2nc3cc(S(=O)(=O)NC(C)C)ccc3n2C(C)C)cn1 [CBK307311]
Second: CCOC(=O)c1cnn(-c2cc(Oc3ccccc3)ncn2)c1N [CBK098284]
The viability at 28.5 h, 10 µM of the first is lower: 98.7% for the first, 105% for the second.

First: O=C(c1ccc(N2CCCC2)cc1)N1CCc2sccc2C1c1ccco1 (stereo not shown) [CBK285707]
Second: S=c1[nH]nc(-c2ccco2)n1-c1ccc(Cl)cc1 [CBK023586]
The viability at 28.5 h, 10 µM of the first is higher: 102% for the first, 97.8% for the second.

Compared with `C=CCn1c(N2CCC(C(=O)NC3CC3)CC2)nc2ccccc21` [CBK283924], `O=C(NC1CCCC1)c1ncoc1-c1ccccc1` [CBK281937] is higher in viability at 28.5 h, 10 µM: 86.4% for the first, 100% for the second.

Going from `Cc1cccc(N2C(=O)c3ccc(C(=O)c4ccc5c(c4)C(=O)N(c4cccc(C)n4)C5=O)cc3C2=O)n1` [CBK263069] to `Cc1cc(NC(=O)c2ccc(C(C)(C)C)cc2)nc2c1c(=O)oc1ccccc12` [CBK291200], the viability at 28.5 h, 10 µM rises from 87.8% to 120%.

Going from `O=C(CN1CCN(C2CCCC2)C(=O)C1)N1CCCc2ccccc21` [CBK282132] to `CCS(=O)(=O)N1CC2CCCC(O)(c3ccc(F)cc3)C2C1` (stereo not shown) [CBK284363], the viability at 28.5 h, 10 µM falls from 81.7% to 80.5%.

Compared with `CC(C)(C)c1ccc(-c2nc(N)cc3ccccc23)cc1` [CBK085720], `Oc1cc(C(F)(F)F)nc(SCc2ccc(Cl)cc2)n1` [CBK002305] is lower in viability at 28.5 h, 10 µM: 109% for the first, 106% for the second.

First: COc1ccccc1-c1cnc(N)c(NC2CCOCC2)n1 [CBK063853]
Second: CC12CCC(C(=O)N(CC(O)Cn3c4ccc(Br)cc4c4cc(Br)ccc43)C1=O)C2(C)C (stereo not shown) [CBK262449]
The viability at 28.5 h, 10 µM of the first is higher: 104% for the first, 94.4% for the second.

`OC1(c2ccc(Cl)cc2)CCNCC1` [CBK023044] gave a viability at 28.5 h, 10 µM of 92%.

Same assay, conditions: human, hela cells, % viability, bulk resorufin, single well

In the case of `CN1CCC(C#N)(c2ccccc2F)CC1` [CBK003511], the viability at 28.5 h, 10 µM is reported as 99.3%.
